Where two headings read alike, the source gives them in different places. Blank lines part the entries; values can stand above or below the compound they belong to.
How the values were obtained:
mice [1] = conditions: earlier work on 79-6; cited from earlier work
HIC1-BTB = target: T1, HIC1-BTB (Homo sapiens, UniProt Q14526); conditions: earlier work on 79-6; cited from earlier work
T1 construct: expressed in transfected cells; host or cells: 293T
T1 sequence (Q14526 47-110 limits assumed): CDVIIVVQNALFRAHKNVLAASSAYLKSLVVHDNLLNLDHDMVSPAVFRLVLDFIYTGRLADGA

BCL6-BTB = BCL6-BTB (Homo sapiens, UniProt P41182); experiment: MicroScale Thermophoresis binding to BCL6-BTB; conditions: affinity to the BCL6-BTB domain
Method: (§1) BCL6 is also required for normal development of germinal center (GC) B-cells.
Recombinant BCL6-BTB was labeled using the RED-NHS Labeling kit (NanoTemper Technologies). […] The label:protein ratio was determined using photometry at 650 nm and Bradford reagent. […] The labeled BCL6-BTB was adjusted to 400 nM with PBS (Thermo) buffer supplemented with 0.05% Tween-80 (Fisher scientific). […] After 10 min incubation, approximately 4 μL of each solution was filled into Monolith NT Standard Treated Capillaries (NanoTemper Technologies GmbH). Thermophoresis was measured using a Monolith NT.115 instrument (NanoTemper Technologies GmbH) at an ambient temperature of 25° C. with 5 s/30 s/5 s laser off/on/off times, respectively. Instrument parameters were adjusted with 90% LED power and 40% MST power. Data of three independent experiments were analyzed (NT.Analysis software version 1.5.41, NanoTemper Technologies) using the signal from Thermophoresis.

human DLBCL xenografts = conditions: mice; earlier work on 79-6; cited from earlier work
PLZF-BTB = target: T2, PLZF-BTB (Homo sapiens, UniProt Q05516); conditions: earlier work on 79-6; cited from earlier work
T2 construct: the repression activity of the HIC1, PLZF, or Kaiso BTB domains; expressed in transfected cells; host or cells: 293T
T2 sequence (Q05516 34-96 limits assumed): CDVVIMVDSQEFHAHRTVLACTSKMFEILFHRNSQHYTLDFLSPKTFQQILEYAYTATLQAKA

Ly3 DLBCL cells = experiment: Growth inhibition of DLBCL cells, Ly3; assay type: cell-based
Method: (§2) 50,000 cells per well were treated for 48 hours with different concentrations of the compounds in 96 well plates, using DMSO as a control. Then, viability was determined with Cell Titer Blue™ (Promega) and growth inhibition was calculated as the percentage of viable cells with respect to cells treated with DMSO alone. GI50 values were determined by dose-response curves.
(§3) 293T cells were grown in Dulbecco's modified Eagles medium supplemented with 10% fetal bovine serum (FBS) (Gemini Bio-Products, Woodland, Calif.) and 1% penicillin-streptomycin. DLBCL cell lines OCI-Ly1, OCI-Ly1-B50, OCI-Ly7, OCI-Ly10 and OCI-Ly19 were grown in 80% Iscove's medium, 20% FBS and penicillin G/streptomycin. DLBCL cell lines Toledo, Farage, SU-DHL4, DOHH-2, SC-1, RCK8, TMD8, HBL-1, Ly3, Karpas 422 and SU-DHL6 were cultured in 90% RPMI medium, 10% FBS, 2 mM glutamine, 10 mM Hepes and penicillin G/streptomycin. All cell lines were cultured at 37° C. in a humidified atmosphere of 5% CO2.

SUDHL6 DLBCL cells = experiment: Growth inhibition of DLBCL cells, SUDHL6; assay type: cell-based; conditions: Homo sapiens, SU-DHL-6
Method: as §2, §3

Ly7 DLBCL cells = experiment: Growth inhibition of DLBCL cells, Ly7; assay type: cell-based
Method: as §2, §3

Karpas 422 DLBCL cells = experiment: Growth inhibition of DLBCL cells, Karpas 422; assay type: cell-based; conditions: Homo sapiens
Method: as §2, §3

Ly4 DLBCL cells = experiment: Growth inhibition of DLBCL cells, Ly4; assay type: cell-based; conditions: Table 9; Bcl6 independent; read-out: GI 50 Ly4
Method: as §2

Ly1 DLBCL cells = experiment: Growth inhibition of DLBCL cells, Ly1; assay type: cell-based; conditions: Table 9; Bcl6 dependent; read-out: GI 50 Ly1
Method: as §2, §3

Toledo DLBCL cells = experiment: Growth inhibition of DLBCL cells, Toledo; assay type: cell-based; conditions: Homo sapiens
Method: as §2, §3

WSU-DLCL2 DLBCL cells = experiment: Growth inhibition of DLBCL cells, WSU-DLCL2; assay type: cell-based; conditions: Homo sapiens, WSUDLCL2; Table 9; Bcl6 independent; read-out: GI 50 WSUDLCL2
Method: as §2

Ly1B50 DLBCL cells = experiment: Growth inhibition of DLBCL cells, Ly1B50; assay type: cell-based
Method: as §2, §3

Ly10 DLBCL cells = experiment: Growth inhibition of DLBCL cells, Ly10; assay type: cell-based
Method: as §2, §3

[2] = test system: BCL6 dependent aggressive ABC DLBCLs; experiment: ABC DLBCL in vitro and in vivo treatment
From the text: as §1

germinal center = experiment: Germinal center formation in immunized mice; conditions: 10 days, 100 mg/kg
mice [3] = experiment: Toxicity of 1085 in mice; assay type: in vivo; conditions: C57BL/6 mice, daily IP 50 to 150 mg/kg over 7 days
Method: […]. BCL6 is also required for normal development of germinal center (GC) B-cells. […]. Noteworthy, BCL6 dependent aggressive ABC DLBCLs were also sensitive to the in vitro and in vivo treatment with 1085, and even primary human ABC DLBCL samples were sensitive to the treatment with the new BCL6 inhibitor.
[…]. Five C57BL/6 mice were exposed to daily intraperitoneal (IP) administration of increasing doses of the compound ranging from 50 to 150 mg/kg over the course of 7 days, to a cumulative dose of 750 mg/kg, and another five mice were exposed to vehicle only. […] Brain, heart, lung, liver, kidney, bowel, spleen, and bone marrow tissues were examined. Complete peripheral blood counts, biochemistry and liver function tests were normal.

[4] = test system: BCL6 dependent GCB DLBCLs; experiment: GCB DLBCL tumors in vivo
From the text: as §1

[5] = test system: primary human ABC DLBCL samples; experiment: Primary human ABC DLBCL samples
[6] = Pharmacokinetics in vitro and in vivo
[7] = Stability in administration vehicle by NMR spectroscopy; assay type: physicochemical
Method: First, the stability of the compound in the administration vehicle of 30% PEG-300, 5% Tween-80, and 65% dextrose 5%, was evaluated at room temperature over a period of up to 8 days by NMR spectroscopy.
The toxic effects of 1085 on mice were then examined. Five C57BL/6 mice were exposed to daily intraperitoneal (IP) administration of increasing doses of the compound ranging from 50 to 150 mg/kg over the course of 7 days, to a cumulative dose of 750 mg/kg, and another five mice were exposed to vehicle only. […] Brain, heart, lung, liver, kidney, bowel, spleen, and bone marrow tissues were examined. Complete peripheral blood counts, biochemistry and liver function tests were normal.

[8] = Table 9, Bcl6 dependent, read-out: GI 50 Ly3
[9] = Table 9, Bcl6 dependent, read-out: GI 50 SUDHL6
[10] = Table 10, BCL6 dependent, read-out: GI50 SUDHL6
[11] = Table 9, Bcl6 dependent, read-out: GI 50 Ly7
[12] = Table 9, Bcl6 independent, read-out: GI 50 K422
[13] = Table 9, Bcl6 independent, read-out: GI 50 Toledo
[14] = Table 9, Bcl6 independent, read-out: GI 50 Ly1B50
[15] = Table 9, Bcl6 dependent, read-out: GI 50 Ly10
[16] = Table 2, BCL-6 dependent, 48 hours
[17] = Table 2, BCL-6 independent, 48 hours

SMILES: O=C(O)CC(C(=O)O)N1C(=O)/C(=C2/C(=O)Nc3ccc(Br)cc32)SC1=S (stereo not shown) [Compound 79-6]
- toxicity (mice [1]): not toxic
- inhibition of HIC1 BTB domain (HIC1-BTB): not other BTB domains
- Kd (BCL6-BTB): ~120 µM
- effect on human DLBCL xenografts (human DLBCL xenografts): suppresses human DLBCL xenografts
- inhibition of PLZF BTB domain (PLZF-BTB): not other BTB domains

SMILES: C[C@@H](OC(=O)CN1C(=O)C(=O)c2cc(Cl)ccc21)c1ccccc1 [Compound 361]
- GI50 (Ly3 DLBCL cells; [8]): 56 µM
- GI50 (SUDHL6 DLBCL cells; [9]): 7 µM
- GI50 (Ly7 DLBCL cells; [11]): 26 µM
- GI50 (Karpas 422 DLBCL cells; [12]): 20 µM
- GI50 (Ly4 DLBCL cells): 98 µM
- GI50 (Ly1 DLBCL cells): 24 µM
- GI50 (Toledo DLBCL cells; [13]): 39 µM
- GI50 (WSU-DLCL2 DLBCL cells): 41 µM
- GI50 (Ly1B50 DLBCL cells; [14]): 103 µM
- GI50 (Ly10 DLBCL cells; [15]): 166 µM

SMILES: O=C(O)CCN1C(=O)/C(=C2/C(=O)Nc3ccc(Cl)cc32)SC1=S [Compound 1085, (Z)-3-(5-(5-Chloro-2-oxoindolin-3-ylidene)-4-oxo-2-thioxothiazolidin-3-yl)propanoic acid]
- sensitivity of ABC DLBCLs to treatment [2]: sensitive
- GI50 (Ly3 DLBCL cells; [16]): > 40 µM
- GI50 (SUDHL6 DLBCL cells; Table 2, BCL-6 dependent, 48 hours, read-out: GI50 SUDH6): 14 ± 7 µM
- GI50 (Ly7 DLBCL cells; [16]): 23 ± 9 µM
- effect on germinal center (germinal center): inhibited the germinal center
- GI50 (Karpas 422 DLBCL cells; Table 2, BCL-6 independent, 48 hours, read-out: GI50 Karpas 422): > 40 µM
- GI50 (Toledo DLBCL cells; [17]): > 40 µM
- complete peripheral blood counts, biochemistry and liver function tests (mice [3]): normal
- toxic effects or other indicators of sickness (mice [3]; cumulative 750 mg/kg): No toxic effects
- GI50 (Ly1B50 DLBCL cells; [17]): > 40 µM
- tumors with tumor regression [4]: 95%
- sensitivity of primary human ABC DLBCL samples [5]: sensitive
- pharmacokinetics [6]: favorable pharmacokinetics
- stability in solution [7]: very stable in solution
- stability of the compound in the administration vehicle ([7]; 30% PEG-300, 5% Tween-80, 65% dextrose 5%, room temperature, 8 days, NMR): No significant changes in the structure
- GI50 (Ly10 DLBCL cells; [16]): 23.5 ± 0.2 µM

Further lines, with some results ahead:

- GI50 (SUDHL6 DLBCL cells; [9]): 1 µM
- GI50 (SUDHL6 DLBCL cells; [10]): 42 ± 10 µM
- GI50 (Karpas 422 DLBCL cells; [12]): 38 µM
SMILES: O=C(CN1C(=O)C(=O)c2cc(Cl)ccc21)OCc1ccc(Cl)cc1 [Compound 355]
- GI50 (Ly3 DLBCL cells; [8]): 54 µM
- GI50 (Ly7 DLBCL cells; [11]): 45 µM
- GI50 (Ly7 DLBCL cells; Table 10, BCL6 dependent): 43 ± 3 µM
- GI50 (Ly4 DLBCL cells): 81 µM
- GI50 (Ly1 DLBCL cells): 37 µM
- GI50 (Toledo DLBCL cells; [13]): 35 µM
- GI50 (Toledo DLBCL cells; Table 10, BCL6 independent): 45 ± 7 µM
- GI50 (WSU-DLCL2 DLBCL cells): 52 µM
- GI50 (Ly1B50 DLBCL cells; [14]): 55 µM
- GI50 (Ly10 DLBCL cells; [15]): 62 µM

- GI50 (SUDHL6 DLBCL cells; [9]): 1 µM
- GI50 (SUDHL6 DLBCL cells; [10]): 22 ± 3 µM
- GI50 (Karpas 422 DLBCL cells; [12]): 58 µM
SMILES: O=C(CN1C(=O)C(=O)c2cc(Cl)ccc21)OCc1ccc(F)cc1 [Compound 357]
- GI50 (Ly3 DLBCL cells; [8]): 79 µM
- GI50 (Ly7 DLBCL cells; [11]): 25 µM
- GI50 (Ly7 DLBCL cells; Table 10, BCL6 dependent): 30 ± 10 µM
- GI50 (Ly4 DLBCL cells): > 125 µM
- GI50 (Ly1 DLBCL cells): 81 µM
- GI50 (Toledo DLBCL cells; [13]): 51 µM
- GI50 (Toledo DLBCL cells; Table 10, BCL6 independent): 50 ± 1 µM
- GI50 (WSU-DLCL2 DLBCL cells): 100 µM
- GI50 (Ly1B50 DLBCL cells; [14]): 56 µM
- GI50 (Ly10 DLBCL cells; [15]): 60 µM

- GI50 (SUDHL6 DLBCL cells; [9]): 2 µM
- GI50 (SUDHL6 DLBCL cells; [10]): 27 ± 4 µM
- GI50 (Karpas 422 DLBCL cells; [12]): > 125 µM
SMILES: O=C(CN1C(=O)C(=O)c2cc(Cl)ccc21)OCc1cccc(F)c1 [Compound 358]
- GI50 (Ly3 DLBCL cells; [8]): > 125 µM
- GI50 (Ly7 DLBCL cells; [11]): 20 µM
- GI50 (Ly7 DLBCL cells; Table 10, BCL6 dependent): 40 ± 10 µM
- GI50 (Ly4 DLBCL cells): > 125 µM
- GI50 (Ly1 DLBCL cells): > 125 µM
- GI50 (Toledo DLBCL cells; [13]): 69 µM
- GI50 (Toledo DLBCL cells; Table 10, BCL6 independent): 82 ± 20 µM
- GI50 (WSU-DLCL2 DLBCL cells): > 125 µM
- GI50 (Ly1B50 DLBCL cells; [14]): > 125 µM
- GI50 (Ly10 DLBCL cells; [15]): > 125 µM
